This is an account of results in patent publication EP0398925B1, “GROWTH INHIBITING AGENT AND THE USE THEREOF” (CHILDREN'S HOSPITAL CORPORATION, priority 1988, dated 1989).

In data set [1] the test system is chorioallantoic membrane of the chick embryo. Nature of the data set: CAM assay: avascular zone around a methylcellulose disc holding the test substance. The class given is in vivo. To be noted: for angiogenesis-inhibition: 100 µg of cyclodextrin with 50 µg of hydrocortisone, no successes at (+) or (++) level; for angiogenesis suppression activity: unmodified CDs with hydrocortisone (Examples 18-20). The source says:
A more economic bioassay makes use of the chorioallantoic membrane of the chick embryo. This test will for convenience be referred to hereinafter as the "CAM assay". For a more detailed description of the CAM assay, see Folkman et al., Science 221:719 (1983). A typical CAM assay, such as used for the evaluations in the examples in Section 7, infra, employs 16 eggs per experiment. A 2 mm diameter disk of methylcellulose containing the test substance is applied to the chorioallantoic membrane of a 6-day chick embryo, cultured in a Petri dish, in a humidified incubator with 3% carbon dioxide. Two days later (8-day embryo), the membrane is examined under a stereomicroscope at six- to ten-fold magnification. Inhibition of angiogenesis by the test substance is evidenced by the development of an avascular zone around the methylcellulose disc. An avascular zone of 4 mm is graded as (++) and an avascular zone of 2 mm is graded as (+). […] A rating of zero % reflects absence of inhibition or the test substance under the test conditions.
The sustained release methylcellulose discs are prepared by dispersing appropriate amount(s) of the test substance of substances in an 0.45% aqueous solution of methylcellulose, and depositing 10 microliter aliquots of the resulting solution in a Teflon mold, followed by air drying for about one hour in a laminar flow hood.

Data set [2] has as its system rabbit cornea. Nature of the data set: Rabbit cornea test, endotoxin Elvax implant, test substance given in a second Elvax implant. Particulars: day 13, Elvax pellet with β-CD-TDS 15 µg/mm³ and/or cortexolone 30 µg/mm³, over 100% = stimulation; for Vessel Density, Inhibition (% of Untreated Control Group): length-density index. Type of data set: in vivo. As for the experimental part: In another series of experiments, the antiangiogenic activity of a water-soluble cyclodextrin salt derivative in combination with cortexolone was evaluated using the rabbit cornea test as described by Gimbrone et al., J. Nat'l Cancer Inst. 52:413 (1974). In these experiments, E. coli endotoxin (17 µg/mm³) incorporated into sustained release polymer pellets of ethylene vinylacetate copolymer [Elvax, Sigma Chemical, St. Louis, MO (hereinafter "Elvax")] was implanted between the vascular limbal edge of the rabbit corneas. The test substance(s) were administered by means of a second Elvax implant incorporating the particular test substance.
Elvax containing endotoxin was implanted into the corneas of 12 rabbits. The animals were then divided into 4 groups and 4 eyes were treated for each group as follows: Group 1, received no further treatment and served as the control group; Group 2, β-CD-TDS at 15 µg/mm³ Elvax pellet; Group 3, cortexolone at 30 µg/mm³ Elvax pellet; and Group 4, a combination of β-CD-TDS and cortexolone incorporated into an Elvax pellat at a final concentration of 15 µg/mm³ Elvax of β-CD-TDS and 30 µg/mm³ Elvax of cortexolone. The vessel length of new capillary growth was measured every 2 days with a slit-lamp stereoscope at 10X using an ocular grid calibrated to ± 0.1 mm.
Thus, the vessel density was also evaluated and graded using the following scale: O=no vessels/cornea; 1=1-4 vessels/cornea; 2=5-20 vessels/cornea; 3=20-50 vessels/cornea; and 4=more than 50 vessels/cornea. This grade was then multiplied by mean maximal length of the vessels to obtain a semi-quantitative estimate of vessel density (length-density index) for each cornea.

The nature of data set [3]: Solubility in liquid water at zero °C. Type of data set: physicochemical. The source says: The CD derivatives useful in the present invention are highly hydrophilic and therefore very water soluble. Without wishing to be bound by theory, we believe that a highly hydrophilic character is important to allow interaction with cellular surfaces. We also believe a very high water solubility of the derivative is an important factor which cooperatively interacts with the inherent complexing ability of the CD structure to provide effective inhibition of angiogenesis with an exogenous steroid, as provided by this invention. We believe that the hydrophlilic activity is roughly indicated by the affinity to water, as measured by water solubility. It is important to measure the same at 0°C since at higher temperatures the most suitable derivative have solubilities so high that meaningful measurements are difficult. […] All solubility measurements referred to herein relate to the solubility of the substantially anhydrous derivatives, and when these are salts, to the anhydrous sodium form. […] In order to make comparisons that included the very water-soluble CD sulfates, the solubilities of which were so high at room temperature that measurement was not practical, all solubility measurements were made in liquid water at zero °C. One can picture this to be a measure of the competition of the hydrophile bonding with water in relation to the orderly bonding of water to itself.

Data set [4] has as its system calf aortic SMC. Nature of the data set: Suppression of smooth muscle cell growth in tissue culture. Particulars: each used alone, 0.03 µg/ml up to 400 µg/ml. Type of data set: cell-based. As for the experimental part: (§1) The bioassay of this activity was made using tissue cultures of rat aortic SMC and calf aortic SMC, with dosages ranging from 0.03 µg/ml up to 400 µg/ml.

Data set [5] concerns rat aortic SMC. The description is as above. To be noted: each used alone, 0.03 µg/ml up to 400 µg/ml. Type of data set: cell-based. As for the experimental part: as §1
Data set [6] has as its system rabbit cornea. The data set is described as follows: Rabbit corneal test, endotoxin implant, test substance applied topically as eye drops. To be noted: eye drops in saline; 9th day; hydrocortisone 0.5 mg/ml, β-CD-TDS 1.0 mg/ml (combination uses hydrocortisone-21-phosphate). Type of data set: in vivo. The source says: The rabbit corneal test described by Perlin, Fed. Proc. 36:101 (1977) modified as described below, was employed to examine the effectiveness of a combination of β-CD-TDS and hydrocortisone In this corneal test, a sustained release polymer impregnated with bacterial endotoxin was first implanted in rabbit corneas. Endotoxin slowly released from this implant induces angiogenesis in the cornea in a manner analogous to the neovascularization observed in patients rejecting a corneal transplant. Rather than employing a second implant containing the test substance to deliver such test substance as generally used, in the present experiments the test substance was applied topically to the cornea, i.e., in the form of eye drops. Animals having received an endotoxin-containing implant were divided into four groups and were treated by topical application (eye drops) as follows: Group 1, was not treated further and served as the control group; Group 2, received hydrocortisone alone (0.5 mg/ml); Group 3, hydrocortisone-21-phosphate and β-CD-TDS, (0.5 mg/ml and 1.0 mg/ml, respectively); and Group 4, β-CD-TDS (1.0 mg/ml). The diluent for the eye drops was saline in all cases. FIG. 3 (A-D) illustrates the results typically obtained on the 9th day post-implantation and treatment.

[7] abbreviates: 25 µg/10 µl of β-CD-TDS with Cortexolone 50 µl/10 µl.
The mark [8] stands for this setting: compound 25 µg/10 µl with 50 µg to 60 µg of hydrocortisone in 10 µl of 0.45% methylcellulose.
[9] abbreviates: compound 100 µg/10 µl with 50 µg to 60 µg of hydrocortisone in 10 µl of 0.45% methylcellulose.

With `C[C@]12CCC(=O)C=C1CC[C@@H]1[C@@H]2CC[C@@]2(C)[C@H]1CC[C@]2(O)C(=O)CO` [Cortexolone, 17 alpha, 21-dihydroxypregn-4-ene-3,20-dione], the “% Avascular zones” value in data set [1] (Cortexolone alone, 50 µl/10 µl) was “zero”. In data set [2], the “Vessel Length, Inhibition (% of Untreated Control Group)” value worked out at 49% and the “Vessel Density, Inhibition (% of Untreated Control Group)” value is on record as 61%. Besides, in data set [2] (listed as cortexolone), the “Vessel Length, Inhibition (% of Untreated Control Group)” value is on record as “about 49%” and the “Vessel Density, Inhibition (% of Untreated Control Group)” value is reported as “about 61%”.
As to “β-cyclodextrin tetradeca sulfate [β-CD-TDS]”, the “% Avascular zones” value in data set [1] (setting [7]) is 85%; in data set [1] (setting [8]), 58± 7.0%; in data set [1] (compound 50 µg/10 µl with 50 µg to 60 µg of hydrocortisone in 10 µl of 0.45% methylcellulose), 75± 5.8%; in data set [1] (setting [9]), 55± 7.5%. Further, the “% avascular zones (++) or greater” value in data set [1] (setting [7]) is reported as 31%. The “Solubility 0°C, g/100 ml H₂O” value in data set [3] is 42 g/100 ml H₂O. Besides, the “effectiveness relative to whole heparin in suppressing smooth muscle cell (SMC) growth” value in data set [4] and in data set [5] was “about three” in each case. The “effect on endotoxin-induced angiogenesis in the cornea” value in data set [6] was “slight stimulation of angiogenesis”.
Regarding γ-cyclodextrin [γ-CD], in data set [1], the angiogenesis-inhibition result is “total absence of angiogenesis-inhibition” and the angiogenesis suppression activity entry is reported as “no indication of angiogenesis suppression activity”. In data set [1] (setting [9]), the “% Avascular zones” value is given as 0%.
Consider `C[C@]12CCC(=O)C=C1CC[C@@H]1[C@@H]2[C@@H](O)C[C@@]2(C)[C@H]1CC[C@]2(O)C(=O)CO` [hydrocortisone, 11 beta, 17 alpha, 21-trihydroxypregn-4-ene-3,20-dione], for which the “effect on endotoxin-induced angiogenesis in the cornea” value in data set [6] is listed as “only a slight inhibition of angiogenesis”.
On to α-cyclodextrin [α-CD], for which the angiogenesis-inhibition result in data set [1] is “total absence of angiogenesis-inhibition”. The results for the “% Avascular zones” value in data set [1] (setting [8]) and in data set [1] (setting [9]) were 0% and 5± 0.3%, respectively. In addition, in data set [1], the angiogenesis suppression activity result is listed as “no indication of angiogenesis suppression activity”. In addition, the “Solubility 0°C, g/100 ml H₂O” value in data set [3] is given as 6 g/100 ml H₂O.
In the case of `O=C(O)[C@@H]1CCN1` [(a) L-2-Azetidine, L-2-azetidinecarboxylic acid], in data set [1] (L-2-Azetidine 400 ug/10 µl, (a) 0 µg CD-TDS, (b) 25 µg CD-TDS), the “% Avascular zones” value turned out to be 28%.
On to `OC[C@H]1O[C@@H]2O[C@H]3[C@H](O)[C@@H](O)[C@@H](O[C@H]4[C@H](O)[C@@H](O)[C@@H](O[C@H]5[C@H](O)[C@@H](O)[C@@H](O[C@H]6[C@H](O)[C@@H](O)[C@@H](O[C@H]7[C@H](O)[C@@H](O)[C@@H](O[C@H]8[C@H](O)[C@@H](O)[C@@H](O[C@H]1[C@H](O)[C@H]2O)O[C@@H]8CO)O[C@@H]7CO)O[C@@H]6CO)O[C@@H]5CO)O[C@@H]4CO)O[C@@H]3CO` [β-CD, β-cyclodextrin], for which the angiogenesis-inhibition result in data set [1] is recorded as “total absence of angiogenesis-inhibition”. In addition, the “% Avascular zones” value in data set [1] (setting [8]) was found to be 0.04%; in data set [1] (setting [9]), 0%. Besides, the angiogenesis suppression activity result in data set [1] was “no indication of angiogenesis suppression activity”.
